A short description of one data set: Solubility. Format: physicochemical.
The target in the next data set is mTOR (Homo sapiens, UniProt P42345). The data set is described as follows: Cell-free biochemical mTOR kinase assay. The method, then: (§1) Cell-free biochemical kinase assays were performed at Reaction Biology Corporation (Malvern, Pa.). In brief, kinase substrates were diluted into reaction buffer containing 20 mM Hepes (pH 7.5), 10 mM MgCl2, 1 mM EGTA, 0.02% Brij35, 0.02 mg/ml BSA, 0.1 mM Na3VO4, 2 mM DTT, 1% DMSO. Purified protein (CK2a1, CK2a2, or mTOR) was added to the substrate solution and gently mixed. Test compounds were diluted from 10 mM DMSO stock solutions into the reaction buffer using an Echo550 acoustic dispenser, followed by incubation at RT for 20 min. 33P-ATP (10 μCi/μL) was added to reaction mixture, following incubation for 2 h at RT. Reactions were then spotted onto P81 ion exchange paper and kinase activity was detected by filter binding method.

A short description of data set [1]: Tolerability in tumor-bearing mice. Type of data set: in vivo. The note with it: 10 mg/kg i.p., 24 hrs. The method, then:
6-week old male mice were purchased from Charles River Laboratories, and housed in Columbia University's animal control barrier facilities, and mice were allowed one week to acclimate to their new environment. To establish tumor xenografts, 10×10^6 SK-N-Be2 cells were suspended in a 200 μL volume of 50% matrigel slurry. […] Mice were kept on standard chow diet (Purina), and their cage dressing changed twice weekly. Animals were investigated regularly for any sign of discomfort. […] To create the stock solution of isopomiferin, 5 mg of isopomiferin (MicroSource) was dissolved into 50 μL dimethyl sulfoxide (DMSO). To this 450 μL of cyclodextrin solution was added dropwise. Cyclodextrin is dissolved as a 50% w/v solution in 40% EtOH. It is important to add the cyclodextrin slowly and with continual mixing to solubilize the compound. This solution was added to one volume of PBS and filter-sterilized. This solution was then diluted to achieve appropriate concentrations for a 200 μL volume administration at 10 mg/kg to each mouse. The solution was administered to animals via intraperitoneal injection (i.p.). […]
The ability of the compounds to inhibit growth of MYCNA tumor xenografts was evaluated by treating tumor bearing mice with daily i.p. injections of 20 mg/kg isopomiferin or pomiferin. […] MYCN abundance was evaluated mid-experiment, following 14 days of treatment.

In data set [2] the test system is MycN^AMP regulatory module (Master Regulators, TCM). The data set is described as follows: PLATE-Seq with VIPER analysis: reversion of the MycN^AMP master regulator module. Format: cell-based, human. The following applies: SK-N-Be2 cells, IC20, 24 hrs. An excerpt:
Reads were mapped against the human reference genome version Grch38 using the STAR aligner, and used the variance stabilizing transformation from the DESeq2 package for R to normalize each plate. Next, we corrected for batch effect due to having compounds replicates on separate plates. We used the function combat from the sva package for R to compute the batch-corrected normalized gene expression, and fitted a linear model for each compound against the set of DMSO controls on each plate (6 wells per plate per DMSO-treated cells). We used the limma package for R to fit the linear model and to compute p-values and moderated t-statistics for each gene. For each compound, we used a vector of these statistics to generate a gene expression profile of z-scores representing the compound effect as differential between post- and pre-treatment.
Each compound gene expression profile was analyzed using the VIPER algorithm (Alvarez et al. 2016) with TARGET and NRC NBL interactomes, reverse-engineered as described in (Rajbhandari et al. 2018), resulting in two protein activity profiles for each compound that were integrated using Stouffer's z-score method.

A further data set concerns cMyc. The data set is described as follows: Western blot of cMyc in A549 cells. Format: cell-based. The following applies: A549 cells, 5, 10, or 15 μM, 24 hrs. An excerpt:
(§2) Membranes were blocked using Odyssey Blocking Buffer (LI-COR) for 1 hr at room temperature. […] Primary antibodies used in these studies include: MycN (CST; 1:500 dilution), Actin (SCBT; 1:2000 dil.), cMYC (CST; 1:500 dil.), pAKT (S473; CST; 1:500 dil.), AKT (CST; 1:2000), pP70 (T389; CST; 1:1000) P70 (CST; 1:1000).
There are some shared upstream regulatory pathways that govern both MycN and cMyc expression, including mTOR signaling cascade (Guertin and Sabatini 2007; Hay and Sonenberg 2004). We hypothesized that isopomiferin could disrupt the expression of cMyc as well. We identified a cMyc-expressing lung cancer line, A549, and treated cells with 5, 10, or 15 μM isopomiferin for 24 hrs (FIG. 3D).
(Immunoblotting shows a protein as a band on a membrane.)

Another data set relates to pS6K. As to the kind of experiment: S6K phosphorylation western blot in A549 cells. Format: cell-based. The following applies: 24 hrs.
Source text: as §2
We then tested whether mTORC2 complex was disrupted by isopomiferin treatment. […] to enable translation. We tested whether phosphorylation of S6K was inhibited by isopomiferin by treating SK-N-Be2 cells to 10 μM and 20 μM isopomiferin for 24 hours and blotting for pS6K, using total S6K protein as a loading control. […] We then tested whether this was consistent across cell lines by performing a similar experiment in an NSCLC cell line, A549.

The next data set deals with MYCN MR signature. As to the kind of experiment: RNASeq with VIPER analysis of the MYCN MR signature. Type of data set: cell-based, human. The following applies: SK-N-Be2 cells. The protocol:
To uncover changes in gene expression that underpin responses to pomiferin and isopomiferin, RNASeq analysis of SK-N-Be2 cells was performed following treatment with the two active prenylated isoflavonoids as well as a null analog that served as a negative control. SK-N-Be2 cells were treated with either 3 μM or 10 μM of isopomiferin or pomiferin and sampled after 3 h and 6 h. […] By comparing the active to the null analogs, downstream analyses can focus on changes in gene expression associated with the MYCN signature.
Intriguingly, only six MRs were suppressed by pomiferin and isopomiferin, while being unaffected by the null analog dimethyl pomiferin (FIG. 20B).

A further data set has as its target T1, CK2a2 (Homo sapiens, UniProt P19784).
T1 construct: purchased Reaction Biology Corporation (Malvern, Pa.)
As to the kind of experiment: Cell-free biochemical CK2a2 kinase assay. The method, then:
as §1

Another data set has as its system mutant isoform of CK2a1. The data set is described as follows: Cell viability after expression of mutant CK2a1 isoform. The note with it: versus GFP-expressing plasmid.

Entries after “also recorded” stand apart in the source; their conditions may differ.

T1 sequence (P19784 whole entry): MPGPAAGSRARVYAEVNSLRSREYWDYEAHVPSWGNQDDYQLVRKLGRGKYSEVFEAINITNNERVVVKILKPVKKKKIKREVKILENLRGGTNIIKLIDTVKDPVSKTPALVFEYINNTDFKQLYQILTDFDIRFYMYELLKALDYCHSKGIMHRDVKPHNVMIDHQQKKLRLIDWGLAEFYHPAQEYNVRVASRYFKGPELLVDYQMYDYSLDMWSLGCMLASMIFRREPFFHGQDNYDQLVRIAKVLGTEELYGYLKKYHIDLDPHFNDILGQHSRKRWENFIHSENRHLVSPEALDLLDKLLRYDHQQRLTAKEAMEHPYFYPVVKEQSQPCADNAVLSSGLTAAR

With `CC1(C)C=Cc2c(c3c(c4c(=O)c(-c5ccc(O)c(O)c5)coc24)OC(C)(C)CC3)O1` [isopomiferin], the solubility result in “Solubility” is recorded as “not soluble in aqueous buffers”. For the same molecule, the mTOR kinase activity result at mTOR is listed as “did not directly inhibit mTOR kinase activity”. Moreover, the “toxicity observed in animals” value in [1] is “No toxicity issues were observed”. For the same molecule, in data set [2], the “reversion of the MR regulatory module / TCM (VIPER of PLATE-Seq)” value was “the top compound of the 90 tested; also recorded: had the strongest effect on the TCM”. In the data set with cMyc, the cMyc protein abundance result is reported as “suppressed cMyc protein abundance in A549 in a dose dependent manner”. The pS6K entry in the data set on pS6K was “suppressed pS6K in A549 cells”.

As for `CC(C)=CCc1c2c(c3occ(-c4ccc(O)c(O)c4)c(=O)c3c1O)C=CC(C)(C)O2` [pomiferin], in the data set on MYCN MR signature, the “effect on the MYCN MR signature (VIPER of RNASeq)” value is “had the strongest effect on the MYCN MR signature”. On CK2a2, the CK2a2 kinase activity entry is recorded as “inhibiting both isoforms equally in a concentration-dependent manner”. For the same molecule, the “resistance conferred by mutant CK2 isoform” value in the data set with mutant isoform of CK2a1 was “modest resistance”.

The values are drawn from US20220119399A1, “COMPOUNDS AND COMPOSITIONS THAT CAUSE MYCN AND/OR CMYC DEGRADATION AND METHODS OF USE THEREOF” (THE TRUSTEES OF COLUMBIA UNIVERSITY IN THE CITY OF NEW YORK, priority 2018, published 2022).
